Residue numbers refer to the chain shown, from its start.

Series [1] addresses T1, PH1575 (Pyrococcus horikoshii, UniProt O59272).
T1 sequence (O59272 1-287): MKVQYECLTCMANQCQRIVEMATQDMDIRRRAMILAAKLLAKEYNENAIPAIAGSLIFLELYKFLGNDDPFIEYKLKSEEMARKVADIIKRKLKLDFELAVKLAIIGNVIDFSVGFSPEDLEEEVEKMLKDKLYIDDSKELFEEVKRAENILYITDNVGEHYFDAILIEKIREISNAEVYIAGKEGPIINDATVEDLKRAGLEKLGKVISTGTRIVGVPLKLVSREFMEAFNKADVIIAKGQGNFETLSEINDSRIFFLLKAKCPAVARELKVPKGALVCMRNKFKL
Put plainly: phosphate release, Malachite Green, Michaelis-Menten fit. It is filed as biochemical. The settings on record: Ni2+ as preferred metal.

For series [2], the target named is T2, At2g17340 (Arabidopsis thaliana, UniProt Q949P3).
T2 sequence (Q949P3 1-367 limits assumed): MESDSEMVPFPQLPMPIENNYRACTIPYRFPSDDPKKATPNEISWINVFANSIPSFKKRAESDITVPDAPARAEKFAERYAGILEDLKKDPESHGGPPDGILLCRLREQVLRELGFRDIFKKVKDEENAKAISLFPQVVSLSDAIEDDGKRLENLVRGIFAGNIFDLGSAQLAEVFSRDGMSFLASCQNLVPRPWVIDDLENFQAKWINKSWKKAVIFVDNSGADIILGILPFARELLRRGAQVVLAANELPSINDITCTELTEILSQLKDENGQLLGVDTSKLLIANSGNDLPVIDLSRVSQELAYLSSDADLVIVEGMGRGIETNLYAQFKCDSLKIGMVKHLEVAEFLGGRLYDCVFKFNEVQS
Put plainly: phosphate release, Malachite Green, Hill fit. The series is classed as biochemical. To be noted: 0.2 mM Ni2+, 30 °C; sigmoidal kinetics.

The target of series [3] is T3, YMR027W (Saccharomyces cerevisiae, UniProt Q04371, D254A).
T3 sequence (Q04371 1-470 D254A): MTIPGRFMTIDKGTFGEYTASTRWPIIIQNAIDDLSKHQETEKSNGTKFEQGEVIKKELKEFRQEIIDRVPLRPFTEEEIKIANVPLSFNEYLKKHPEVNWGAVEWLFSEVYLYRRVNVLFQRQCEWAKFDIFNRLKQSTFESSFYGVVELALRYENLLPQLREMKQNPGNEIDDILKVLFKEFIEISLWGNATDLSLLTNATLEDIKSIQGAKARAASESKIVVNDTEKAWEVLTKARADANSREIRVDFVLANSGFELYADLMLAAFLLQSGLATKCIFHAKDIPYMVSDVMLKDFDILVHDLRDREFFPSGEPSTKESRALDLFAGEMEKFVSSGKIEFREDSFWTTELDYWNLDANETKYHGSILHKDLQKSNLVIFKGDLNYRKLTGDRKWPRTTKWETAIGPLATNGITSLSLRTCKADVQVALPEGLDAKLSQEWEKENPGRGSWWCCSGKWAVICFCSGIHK
Nature of the series: phosphatase activity compared with wild type. It is filed as biochemical. To be noted: alanine mutant of signature residue.

Series [4] addresses T4, YMR027W (Saccharomyces cerevisiae, UniProt Q04371, N255A).
T4 sequence (Q04371 1-470 N255A): T3 sequence (Q04371 1-470 D254A) with A254D, N255A
Put plainly: phosphatase activity compared with wild type. To be noted: alanine mutant of signature residue. It is filed as biochemical.

The target in series [5] is T5, At2g17340 (Arabidopsis thaliana, UniProt Q949P3, D220A).
T5 sequence (Q949P3 1-367 D220A limits assumed): T2 sequence (Q949P3 1-367 limits assumed) with D220A
Nature of the series: phosphatase activity compared with wild type. It is filed as biochemical. The settings on record: alanine mutant of signature residue.

Series [6] has as its target T6, At2g17340 (Arabidopsis thaliana, UniProt Q949P3, N221A).
T6 sequence (Q949P3 1-367 N221A limits assumed): T2 sequence (Q949P3 1-367 limits assumed) with N221A
Put plainly: phosphatase activity compared with wild type. It is filed as biochemical. To be noted: alanine mutant of signature residue.

Series [7] concerns the target T7, YMR027W (Saccharomyces cerevisiae, UniProt Q04371).
T7 sequence (Q04371 1-470): T3 sequence (Q04371 1-470 D254A) with A254D
Nature of the series: crystal structure, soaking with […] fructose 6-phosphate, […] Å. The series is classed as binding. To be noted: Mg2+ bound, pH 5.5; active site; protein pretreated with chymotrypsin.

Series [8] deals with the molecule itself. Nature of the series: SEC. In general terms: In gel filtration, larger molecules generally elute earlier.

Regarding `Nc1ncnc2c1ncn2[C@@H]1O[C@H](COP(=O)(O)OP(=O)(O)O)[C@@H](O)[C@H]1O` [ADP], the kinetic constants result in series [1] is “the kinetic constants for 8-oxo-dGTP were close to those for ADP”.
On to `O=P(O)(O)OC[C@H]1OC(O)C[C@@H]1O` (some centres unmarked) [2-deoxyribose 5-phosphate], for which the S0.5 entry in series [2] is recorded as “At2g17340 showed sigmoidal kinetics with ribose 5-phosphate or 2-deoxyribose 5-phosphate”.
In the case of `Nc1nc2c([nH]c(=O)n2[C@H]2C[C@H](O)[C@@H](COP(=O)(O)OP(=O)(O)OP(=O)(O)O)O2)c(=O)[nH]1` [8-oxo-dGTP], the kinetic constants entry in series [1] is “the kinetic constants for 8-oxo-dGTP were close to those for ADP”.
For the molecule `O=P(O)(O)OC[C@H]1OC(O)[C@H](O)[C@@H]1O` (some centres unmarked) [ribose 5-phosphate], in series [2], the S0.5 entry is “At2g17340 showed sigmoidal kinetics with ribose 5-phosphate or 2-deoxyribose 5-phosphate”.
As to `O=[N+]([O-])c1ccc(OP(=O)(O)O)cc1` [pNPP, p-nitrophenyl phosphate], the catalytic activity result in series [3] is “signature residues of YMR027W (Asp254, Asn255, and Asp292)”; in series [4], “signature residues of YMR027W (Asp254, Asn255, and Asp292)”; in series [5] it was “At2g17340 (Asp220, Asn221, and Asp256) abolished catalytic activity”; in series [6] it was “At2g17340 (Asp220, Asn221, and Asp256) abolished catalytic activity”.
Turning to `O=P(O)(O)OC[C@H]1OC(O)(CO)[C@@H](O)[C@@H]1O` (some centres unmarked) [F6P, fructose 6-phosphate], the “crystal structure, soaking with 10 mM fructose 6-phosphate, 1.77 Å” value in series [7] is “Crystal soaking using YMR027W and the substrate fructose 6-phosphate”.

B1: Pyrococcus horikoshii DUF89 subfamily I protein PH1575 (enzyme, P. horikoshii)
chain: T1 sequence (O59272 1-287)
By stoichiometry N is commonly meant a count of units in the complex or per binding partner. As for B1, the “stoichiometry N” value in series [8] was found to be 2.

B2: Archaeoglobus fulgidus DUF89 subfamily I protein AF1104 (enzyme, A. fulgidus)
chain: MKISPLCPSCLLGRVYYEAKLVTDDEDLISQCVDESLKILAENYSSRPINAHLATRIHRRVYEILGVEDPYAEVKARANEVARQVLPLAKEIVEGSDDPFKTAVIVSIVGNNFDYGVQGHKVVEEEFRDFLKRKVQEGLKINDTERIKELSSGKVVYLTDNAGEIFFDTLLMKEIKRRCEKLTAVVRGRPIISDATIEDARLARVDKIADELLTNGKGAIGIIMDELPDETRKALEEADLIVAKGMANYECLSDGSLKPIAFLLTAKCEPVARDIGVNVGDMVAKVVE
For the molecule B2, the “stoichiometry N” value in series [8] was determined as 2.

The values are drawn from article PMC7001580 (Nature chemical biology, 2016).
